Experimental data: US9133417B2, “Liquid cleaning and disinfecting compositions comprising an assymetrically branched amine oxide” (THE PROCTER & GAMBLE COMPANY, priority 2012, dated 2015)

Columns and labels:
Settings in all cases: Shake Flask, 1 hour contact (T1h vs T0), incubation 32 °C 24 hours; test concentration not given
[1] = system: Escherichia Coli (EC) CIP 53.126
Method: (§1) The antibacterial efficacy was tested following the below Shake Flask protocol:
(§2) • Microbial strains: Staphylococcus aureus (SA) CIP 4.83, Escherichia Coli (EC) CIP 53.126, Pseudomonas Aeruginosa (PA) CIP 82.113 • Culture media: TSA medium—Neutralizing medium (Dey Engley Broth)—Buffered Peptoned water (BPW-F)—Shake flask bottles—Physiological water • Incubator Shake Flask Protocol: ASTM E2149 Shake Flask Method • Inoculum counting: • For each strain, prepare an inoculum at 0.5 Mc Farland (McF). Dilute 1 ml of the inoculum with 9 ml of physiological water. Select 1 ml of the resulting dilution and dilute again with 9 ml of physiological water. Execute 5 dilution steps accordingly so that a 10^−5 dilution is obtained. • Recover 100 microliter of the 10^−5 dilution and inoculate 2 petri dishes. • Add 20 ml of TSA medium. • Incubate at 32+/−0.5° C. during 24 hours • Negative control: • Put 5 ml of SA, EC or PA inoculums into a shake flask. Add 45 ml of pure BPW-F solution. • Dilute twice in neutralizing medium: Recover 1 ml of the pure solution and add 9 ml of the neutralizing medium (=10^−1 and 10^−2 dilution). • Wait 5 minutes and put 100 microliter of the pure solution and the 10^−2 dilution into 2 petri dishes, add 20 ml of TSA medium (T0). • Do the same operation after 1 hour (T1h). • Incubate at 32+/−0:5° C. during 24 hours • Sample testing: • Prepare a solution at a specified concentration (see data tables for actual concentrations as 100% active—final volume 50 ml). For example, for a 50% (V/V), dilute 25 ml of product with 20 ml of BPW-F and 5 ml of the inoculums (SA, EC or PA) at 0.5 McF. • Dilute twice in neutralizing medium: Recover 1 ml of the pure solution and add 9 ml of the neutralizing medium (=10^−1 and 10^−2 dilution). • Wait 5 minutes and put 100 microliter of the pure solution and the 10^−2 dilution into 2 petri dishes, add 20 ml of TSA medium (T0). • Do the same operation after 1 hour (T1h). • Incubate at 32+/−0.5° C. during 24 hours • Calculation of log reduction: • The log reduction is calculated as log (T0/T1h)

[2] = system: Pseudomonas Aeruginosa (PA) CIP 82.113
Method: as §1, §2

[3] = system: Staphylococcus aureus (SA) CIP 4.83
Method: as §1, §2

## symmetrically branched C12-14 alkyl dimethyl amine oxide
[1]
  log reduction, log (T0/T1h), E. coli: 2.6
[2]
  log reduction, log (T0/T1h), Ps Aeroginosa: 3.29

## linear C12-14 alkyl dimethyl amine oxide [reference compound]
[1]
  log reduction, log (T0/T1h), E. coli: 0.41
[2]
  log reduction, log (T0/T1h), Ps Aeroginosa: 2.10
[3]
  log reduction, log (T0/T1h), St. Aureus: 0.73

## asymmetrically branched C12-14 alkyl dimethyl amine oxide
[2]
  log reduction, log (T0/T1h), Ps Aeroginosa: 3.98
[3]
  log reduction, log (T0/T1h), St. Aureus: 4.06
